# Molecular target: MALT1 (Homo sapiens (Human), UniProt Q9UDY8)
# Assay: MALT1 enzymatic activity inhibition (fluorescence, Ac-LRSR-AMC substrate)
# Type: biochemical
# Conditions: recombinant MALT1 1.5 ng/μl, Ac-LRSR-AMC 1 μM
# Procedure: Compound activity was determined using recombinant MALT1 protein (Creative Biomart, Cat #MALT1-28H) and Ac-LRSR-AMC Substrate in an in vitro enzymatic reaction. The enzymatic assay used to determine activity was a Fluorescence assay using a Microplate Reader ClarioStar Plus. The enzymatic reaction was carried out in 1× Assay Buffer (50 mM HEPES pH 7.2-7.4, 100 mM NaCl, 900 mM Sodium citrate, 10 mM DTT). The compounds were dispensed on a 384-well Diamond Well Plate (Axygen, Cat #P-384-120SQ-C—S) using the Biomek FX liquid handling system at 100× solutions of compounds in DMSO. 2.5×MALT1 mix (final concentration 1.5 ng/μl of MALT1) was prepared in 1× Assay Buffer and 8 μl of mixture per well were added into 384w white Reaction Plates with NBS (Corning, Cat #4513). 8 μl of 1× Assay Buffer were used for negative control. Plates were centrifuged for 1 min at 200 g. Next, the compounds were added to Reaction plates using Biomek station via following steps: 1 μl of 100× compounds (in DMSO) was mixed thoroughly with 19 μl of 1× Assay Buffer, then 4 μl of this mixture were added to Reaction plates with 8 μl of MALT1 mix. Plates were centrifuged for 1 min at 200 g and incubated for 10 minutes at rt. Next, 2.5× Ac-LRSR-AMC mix (final concentration 1 μM of Ac-LRSR-AMC) was prepared in 1× Assay Buffer and 8 μl of mixture per well were added to Reaction Plates using Biomek station. Plates were centrifuged for 1 min at 200 g, then the fluorescence was measured immediately using Microplate Reader. Plates were incubated for 30 minutes at 37° C., then for 30 minutes at rt. The fluorescence was measured after the whole incubation using Microplate Reader. The reaction signal was calculated as the subtraction of the first data set values from the second. The % inhibition was then used to calculate the IC50 values. The results of this assay are shown in the Table A. The values of EC50 shown as a letters A-E, where: A≤0.2 μM; 0.2 μM<B≤0.5 μM; 0.5 μM<C≤1 μM; 1<D≤5 μM; E >5.
# Chain of MALT1 (Q9UDY8 whole entry): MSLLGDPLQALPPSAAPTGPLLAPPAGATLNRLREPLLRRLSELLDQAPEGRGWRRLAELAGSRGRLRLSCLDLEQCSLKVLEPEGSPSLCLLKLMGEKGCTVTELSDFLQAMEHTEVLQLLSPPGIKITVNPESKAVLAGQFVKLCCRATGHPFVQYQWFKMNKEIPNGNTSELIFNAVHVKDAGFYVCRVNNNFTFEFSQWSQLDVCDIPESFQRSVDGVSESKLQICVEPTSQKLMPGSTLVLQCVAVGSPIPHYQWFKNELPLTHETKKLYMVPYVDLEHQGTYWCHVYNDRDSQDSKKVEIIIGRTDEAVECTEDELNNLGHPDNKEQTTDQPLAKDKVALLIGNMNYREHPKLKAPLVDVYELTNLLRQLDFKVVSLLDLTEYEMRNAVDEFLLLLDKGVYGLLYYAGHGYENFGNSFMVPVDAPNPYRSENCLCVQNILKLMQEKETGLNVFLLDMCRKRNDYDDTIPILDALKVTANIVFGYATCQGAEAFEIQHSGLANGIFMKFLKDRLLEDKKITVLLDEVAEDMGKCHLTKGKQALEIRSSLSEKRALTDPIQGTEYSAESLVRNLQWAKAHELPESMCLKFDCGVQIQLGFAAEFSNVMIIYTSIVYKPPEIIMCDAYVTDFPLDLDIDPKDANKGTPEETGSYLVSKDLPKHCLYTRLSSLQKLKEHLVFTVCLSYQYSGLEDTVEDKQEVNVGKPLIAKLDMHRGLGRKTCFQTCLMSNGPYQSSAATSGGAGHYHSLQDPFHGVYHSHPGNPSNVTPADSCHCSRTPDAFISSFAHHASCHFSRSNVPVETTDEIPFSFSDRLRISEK
row,EC50 [µM],Compound
1,1 to 5,"Cc1cc(NC(=O)Nc2cnc3c(Cl)cnn3c2C2CCCC2)cnc1-c1noc(CCCCN2CCN(c3ccc4c(c3)CN(C3CCC(=O)NC3=O)C4=O)CC2)n1 (centres unmarked) [Compound 20, 1-(3-chloro-7-cyclopentyl-pyrazolo[1,5-a]pyrimidin-6-yl)-3-[6-[5-[4-[4-[2-(2,6-dioxo-3-piperidyl)-1-oxo-isoindolin-5-yl]piperazin-1-yl]butyl]-1,2,4-oxadiazol-3-yl]-5-methyl-3-pyridyl]urea]"
2,≤ 0.2,"Cc1cc(NC(=O)Nc2cnc3ccnn3c2C2CCCC2)cnc1-c1noc(CCCCN2CCN(c3ccc4c(c3)CN(C3CCC(=O)NC3=O)C4=O)CC2)n1 (centres unmarked) [Compound 21, 1-(7-cyclopentylpyrazolo[1,5-a]pyrimidin-6-yl)-3-[6-[5-[4-[4-[2-(2,6-dioxo-3-piperidyl)-1-oxo-isoindolin-5-yl]piperazin-1-yl]butyl]-1,2,4-oxadiazol-3-yl]-5-methyl-3-pyridyl]urea]"
3,1 to 5,"O=C1CCC(N2Cc3cc(N4CCN(CCCCc5nc(-c6ncc(NC(=O)Nc7cnc8c(Cl)cnn8c7C7CCCC7)cc6Cl)no5)CC4)ccc3C2=O)C(=O)N1 (centres unmarked) [Compound 22, N-(3-Chloro-7-cyclopentylpyrazolo[1,5-a]pyrimidin-6-yl)-N′-{5-chloro-6-[5-(4-{4-[2-(2,6-dioxopiperidin-3-yl)-1-oxo-2,3-dihydro-1H-isoindol-5-yl]piperazin-1-yl}butyl)-1,2,4-oxadiazol-3-yl]pyridin-3-yl}urea]"
4,1 to 5,"Cc1cc(NC(=O)Nc2cnc3c(Cl)cnn3c2C2CCCC2)cnc1-c1noc(CCCN2CCN(c3cc4c(cc3F)C(=O)N(C3CCC(=O)NC3=O)C4=O)CC2)n1 (centres unmarked) [Compound 24, 1-(3-chloro-7-cyclopentyl-pyrazolo[1,5-a]pyrimidin-6-yl)-3-[6-[5-[3-[4-[2-(2,6-dioxo-3-piperidyl)-6-fluoro-1,3-dioxo-isoindolin-5-yl]piperazin-1-yl]propyl]-1,2,4-oxadiazol-3-yl]-5-methyl-3-pyridyl]urea]"
5,0.2 to 0.5,"CO[C@@H](C)c1c(NC(=O)Nc2cc(Cl)cnc2OCCNC(=O)CCOCCN2CCN(c3ccc4c(c3)CN(C3CCC(=O)NC3=O)C4=O)CC2)cnc2ccnn12 (stereo partly drawn) [Compound 25, N-[2-[[5-chloro-3-[[7-[(1S)-1-methoxyethyl]pyrazolo[1,5-a]pyrimidin-6-yl]carbamoylamino]-2-pyridyl]oxy]ethyl]-3-[2-[4-[2-(2,6-dioxo-3-piperidyl)-1-oxo-isoindolin-5-yl]piperazin-1-yl]ethoxy]propanamide]"
6,> 5,"COc1cc(-c2c(NC(=O)Nc3cnc(N4CCN(C(=O)COCC(=O)Nc5cccc6c5C(=O)N(C5CCC(=O)NC5=O)C6=O)CC4)c(C)c3)cnc3ccnn23)cc(OC)c1OC (centres unmarked) [Compound 26, N-[2-(2,6-dioxo-3-piperidyl)-1,3-dioxo-isoindolin-4-yl]-2-[2-[4-[3-methyl-5-[[7-(3,4,5-trimethoxyphenyl)pyrazolo[1,5-a]pyrimidin-6-yl]carbamoylamino]-2-pyridyl]piperazin-1-yl]-2-oxo-ethoxy]acetamide]"
7,> 5,"COc1cc(-c2c(NC(=O)Nc3cnc(NCCOCCOCCC(=O)N4CCN(c5ccc6c(c5)CN(C5CCC(=O)NC5=O)C6=O)CC4)c(C)c3)cnc3ccnn23)cc(OC)c1OC (centres unmarked) [Compound 27, 1-[6-[2-[2-[3-[4-[2-(2,6-dioxo-3-piperidyl)-1-oxo-isoindolin-5-yl]piperazin-1-yl]-3-oxo-propoxy]ethoxy]ethylamino]-5-methyl-3-pyridyl]-3-[7-(3,4,5-trimethoxyphenyl)pyrazolo[1,5-a]pyrimidin-6-yl]urea]"
8,> 5,"COc1cc(-c2c(NC(=O)Nc3cnc(-n4cc(C(=O)NCCOCCOCCC(=O)N5CCN(c6ccc7c(c6)CN(C6CCC(=O)NC6=O)C7=O)CC5)cn4)c(C)c3)cnc3ccnn23)cc(OC)c1OC (centres unmarked) [Compound 28, N-[2-[2-[3-[4-[2-(2,6-dioxo-3-piperidyl)-1-oxo-isoindolin-5-yl]piperazin-1-yl]-3-oxo-propoxy]ethoxy]ethyl]-1-[3-methyl-5-[[7-(3,4,5-trimethoxyphenyl)pyrazolo[1,5-a]pyrimidin-6-yl]carbamoylamino]-2-pyridyl]pyrazole-4-carboxamide]"
9,> 5,"Cc1cc(NC(=O)Nc2cnc3ccnn3c2C2CCCO2)cnc1NCCOCCOCCOCCC(=O)N1CCN(c2ccc3c(c2)CN(C2CCC(=O)NC2=O)C3=O)CC1 (centres unmarked) [Compound 29, 1-[6-[2-[2-[2-[3-[4-[2-(2,6-dioxo-3-piperidyl)-1-oxo-isoindolin-5-yl]piperazin-1-yl]-3-oxo-propoxy]ethoxy]ethoxy]ethylamino]-5-methyl-3-pyridyl]-3-(7-tetrahydrofuran-2-ylpyrazolo[1,5-a]pyrimidin-6-yl)urea]"
10,> 5,"Cc1cc(NC(=O)Nc2cnc3ccnn3c2C2CCCO2)cnc1N1CCN(C(=O)CCOCCOCCN2CCN(c3ccc4c(c3)CN(C3CCC(=O)NC3=O)C4=O)CC2)CC1 (centres unmarked) [Compound 31, 1-[6-[4-[3-[2-[2-[4-[2-(2,6-dioxo-3-piperidyl)-1-oxo-isoindolin-5-yl]piperazin-1-yl]ethoxy]ethoxy]propanoyl]piperazin-1-yl]-5-methyl-3-pyridyl]-3-(7-tetrahydrofuran-2-ylpyrazolo[1,5-a]pyrimidin-6-yl)urea]"
11,1 to 5,"O=C(CCOCCOCCN1CCN(c2ccc3c(c2)CN(C2CCC(=O)NC2=O)C3=O)CC1)NCCOc1ncc(Cl)cc1NC(=O)Nc1cnc2ccnn2c1C1CCCO1 (centres unmarked) [Compound 32, N-[2-[[5-chloro-3-[(7-tetrahydrofuran-2-ylpyrazolo[1,5-a]pyrimidin-6-yl)carbamoylamino]-2-pyridyl]oxy]ethyl]-3-[2-[2-[4-[2-(2,6-dioxo-3-piperidyl)-1-oxo-isoindolin-5-yl]piperazin-1-yl]ethoxy]ethoxy]propanamide]"
12,1 to 5,"Cc1cc(NC(=O)Nc2cnc3ccnn3c2C2CCCO2)cnc1-n1cc(C(=O)NCCOCCOCCC(=O)N2CCN(c3ccc4c(c3)CN(C3CCC(=O)NC3=O)C4=O)CC2)cn1 (centres unmarked) [Compound 33, N-[2-[2-[3-[4-[2-(2,6-dioxo-3-piperidyl)-1-oxo-isoindolin-5-yl]piperazin-1-yl]-3-oxo-propoxy]ethoxy]ethyl]-1-[3-methyl-5-[(7-tetrahydrofuran-2-ylpyrazolo[1,5-a]pyrimidin-6-yl)carbamoylamino]-2-pyridyl]pyrazole-4-carboxamide]"
13,> 5,"Cc1cc(NC(=O)Nc2cnc3ccnn3c2C2CCCO2)cnc1N1CCN(C(=O)CCOCCN2CCN(c3ccc4c(c3)CN(C3CCC(=O)NC3=O)C4=O)CC2)CC1 (centres unmarked) [Compound 35, 1-[6-[4-[3-[2-[4-[2-(2,6-dioxo-3-piperidyl)-1-oxo-isoindolin-5-yl]piperazin-1-yl]ethoxy]propanoyl]piperazin-1-yl]-5-methyl-3-pyridyl]-3-(7-tetrahydrofuran-2-ylpyrazolo[1,5-a]pyrimidin-6-yl)urea]"
14,0.5 to 1,"O=C(CCOCCN1CCN(c2ccc3c(c2)CN(C2CCC(=O)NC2=O)C3=O)CC1)NCCOc1ncc(Cl)cc1NC(=O)Nc1cnc2ccnn2c1C1CCCO1 (centres unmarked) [Compound 36, N-[2-[[5-chloro-3-[(7-tetrahydrofuran-2-ylpyrazolo[1,5-a]pyrimidin-6-yl)carbamoylamino]-2-pyridyl]oxy]ethyl]-3-[2-[4-[2-(2,6-dioxo-3-piperidyl)-1-oxo-isoindolin-5-yl]piperazin-1-yl]ethoxy]propanamide]"
